Drawing on PubChem BioAssay (NCI), this text covers TGI and GI50 for 12 compounds.

Among the test systems are DMS 273 small cell lung; IGROV1 ovarian; LXFL 529 NSCLC; NCI-H23 lung; OVCAR-4 ovarian; OVCAR-8 ovarian; RXF 393 renal; SK-MEL-5 melanoma; UACC-257 melanoma; SR leukemia.
Assay in all cases: NCI tumour cell line growth inhibition, 48 h

“And” between values parts separate entries of the source, which are not always exact repeats. Identical values can stand only once.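 Cells were grown in 96-well plates and exposed to each compound for 48 hours at five concentrations; endpoints were interpolated linearly between bracketing concentrations, or set to the highest concentration if not reached. The concentration for 50% growth inhibition is given as GI50. TGI marks complete inhibition of growth.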

Turning to `CC(C)(C)CC(C)(C)c1cc2c(O)c(c1)Cc1cc(C(C)(C)CC(C)(C)C)cc(c1O)Cc1cc(C(C)(C)CC(C)(C)C)cc(c1O)Cc1cc(C(C)(C)CC(C)(C)C)cc(c1O)Cc1cc(C(C)(C)CC(C)(C)C)cc(c1O)C2`, the TGI in the experiment with DMS 273 small cell lung, in the experiment on IGROV1 ovarian, in the experiment with LXFL 529 NSCLC, with NCI-H23 lung, with OVCAR-4 ovarian and with OVCAR-8 ovarian was greater than 100 µM in each case. The TGI with RXF 393 renal, with SK-MEL-5 melanoma and in the experiment with UACC-257 melanoma was greater than 100 µM in each case.
Turning to `CC(C)[O-].CC(C)[O-].O=C1C=C([O-])C(=O)c2ccccc21.O=C1C=C([O-])C(=O)c2ccccc21.[Ti+4]`, the GI50 is 34.9 µM in the experiment on DMS 273 small cell lung; greater than 100 µM in the experiment on IGROV1 ovarian; 80.8 µM in the experiment on LXFL 529 NSCLC; 3.94 µM in the experiment with NCI-H23 lung; greater than 100 µM in the experiment on OVCAR-4 ovarian; greater than 100 µM in the experiment with OVCAR-8 ovarian. Moreover, the results for the GI50 in the experiment with RXF 393 renal, in the experiment on SK-MEL-5 melanoma and in the experiment with UACC-257 melanoma were greater than 85.3 µM, 6.32 µM and 4.97 µM, respectively. Moreover, the TGI in the experiment on DMS 273 small cell lung was greater than 100 µM; in the experiment on IGROV1 ovarian, greater than 100 µM; with LXFL 529 NSCLC it was greater than 100 µM; with NCI-H23 lung it was greater than 79.3 µM; with OVCAR-4 ovarian, greater than 100 µM; in the experiment with OVCAR-8 ovarian, greater than 100 µM. In addition, the results for the TGI with RXF 393 renal, in the experiment with SK-MEL-5 melanoma and in the experiment with UACC-257 melanoma were greater than 100 µM, greater than 66.8 µM and greater than 100 µM, respectively.
Turning to `CC1=C(C(=O)Nc2cc(=O)n(C)c(=O)n2C)C(c2cccc([N+](=O)[O-])c2)C(C(=O)Nc2cc(=O)n(C)c(=O)n2C)=C(C)N1`, the TGI in the experiment with IGROV1 ovarian, with LXFL 529 NSCLC, with NCI-H23 lung, in the experiment on OVCAR-4 ovarian, with OVCAR-8 ovarian and with RXF 393 renal was greater than 100 µM each time. The TGI with SK-MEL-5 melanoma and in the experiment with UACC-257 melanoma was greater than 100 µM throughout.
Consider `COc1cc(OC)c(SSCCCCS(=O)O)c(OC)c1`, for which the TGI is 34.8 µM in the experiment on DMS 273 small cell lung; 57.8 µM in the experiment with IGROV1 ovarian; 25.2 µM in the experiment on LXFL 529 NSCLC; 30.5 µM in the experiment with NCI-H23 lung; greater than 100 µM in the experiment on OVCAR-4 ovarian; 34.1 µM in the experiment on OVCAR-8 ovarian. The TGI came to 27.6 µM in the experiment on RXF 393 renal, 22.3 µM in the experiment on SK-MEL-5 melanoma and 23.5 µM with UACC-257 melanoma.
As for `COc1ccc(-c2cc(=O)c3ccccc3o2)cc1N`, the TGI in the experiment with DMS 273 small cell lung, with IGROV1 ovarian, in the experiment on LXFL 529 NSCLC, in the experiment with NCI-H23 lung, with OVCAR-4 ovarian and in the experiment on OVCAR-8 ovarian was greater than 100 µM each time. The TGI in the experiment with RXF 393 renal, with SK-MEL-5 melanoma and in the experiment on UACC-257 melanoma was greater than 100 µM in each case.
With `C[C@]12CCC(=O)C(O)=C1CC[C@@H]1C2CC[C@]2(C)NC(=O)CCC12` (stereo not given in full), the TGI with DMS 273 small cell lung, with IGROV1 ovarian, in the experiment on LXFL 529 NSCLC, in the experiment on NCI-H23 lung, in the experiment with OVCAR-4 ovarian and with OVCAR-8 ovarian was greater than 100 µM in each case. The TGI with RXF 393 renal, with SK-MEL-5 melanoma and in the experiment on UACC-257 melanoma was greater than 100 µM each time.
With `O=C(CCc1nnc2s/c(=C\c3ccc(Cl)c(Cl)c3)c(=O)n12)Nc1ccc(Cl)c(Cl)c1`, the TGI with IGROV1 ovarian is greater than 100 µM; in the experiment with LXFL 529 NSCLC, greater than 100 µM; in the experiment on NCI-H23 lung, greater than 100 µM; in the experiment with OVCAR-4 ovarian, greater than 100 µM; in the experiment with OVCAR-8 ovarian, 43.6 µM; in the experiment on RXF 393 renal, 74 µM. Moreover, the TGI with SK-MEL-5 melanoma was greater than 100 µM; in the experiment on SR leukemia, 74 µM; in the experiment on UACC-257 melanoma, greater than 100 µM.
With `O=C(c1ccccc1)c1c(-c2ccccc2)sc2nc3ccccc3nc12`, the TGI in the experiment on DMS 273 small cell lung, with IGROV1 ovarian, in the experiment on NCI-H23 lung, in the experiment with OVCAR-4 ovarian, with OVCAR-8 ovarian and in the experiment with RXF 393 renal was greater than 100 µM in each case. Also, the TGI with SK-MEL-5 melanoma and in the experiment on UACC-257 melanoma was greater than 100 µM each time.
On to `O=C(O)Cc1cc(=O)[nH]c2c1/C(=N/O)CCC2`, for which the TGI in the experiment with IGROV1 ovarian, in the experiment with LXFL 529 NSCLC, in the experiment with NCI-H23 lung, with OVCAR-8 ovarian, in the experiment with RXF 393 renal and with SK-MEL-5 melanoma was greater than 100 µM each time. In addition, the TGI in the experiment with SR leukemia and in the experiment on UACC-257 melanoma was greater than 100 µM each time.
For `C=C(C)[C@@H]1CC[C@]2(C(=O)O)CC[C@]3(C)[C@H](CC[C@@H]4[C@@]5(C)CCC(NC(=O)c6cccc(OC(C)=O)c6OC(C)=O)C(C)(C)[C@@H]5CC[C@]43C)[C@@H]12` (stereo not given in full), the GI50 in the experiment on IGROV1 ovarian is 0.604 µM; in the experiment with NCI-H23 lung, 0.615 µM; in the experiment with OVCAR-4 ovarian it was 0.507 µM; in the experiment with OVCAR-8 ovarian it was 0.996 µM; with RXF 393 renal, 1 µM; in the experiment on SK-MEL-5 melanoma it was 0.48 µM. The GI50 in the experiment on SR leukemia was 0.568 µM; with UACC-257 melanoma, 0.209 µM. The TGI in the experiment with IGROV1 ovarian was 5.34 µM; in the experiment with NCI-H23 lung it was 4.62 µM; in the experiment with OVCAR-4 ovarian, greater than 100 µM; in the experiment with OVCAR-8 ovarian it was 3.24 µM; in the experiment with RXF 393 renal, 3.12 µM; with SK-MEL-5 melanoma, 1.67 µM. In addition, the TGI worked out at 3.14 µM with SR leukemia and 0.78 µM in the experiment on UACC-257 melanoma.
For `C[C@]12CC[C@H](OC3OC(CO)C(O)C(O)C3O)C[C@H]1CC[C@@H]1[C@@H]2CC[C@]2(C)[C@@H](C3=CCOC3=O)CC[C@]12O` (stereo not given in full), the TGI is 25.1 µM in the experiment on DMS 273 small cell lung; 50 µM and > 100 µM with IGROV1 ovarian; 50 µM and > 100 µM with NCI-H23 lung; 50 µM and > 100 µM in the experiment with OVCAR-4 ovarian; 37 µM and > 100 µM in the experiment on RXF 393 renal; 45.7 µM and > 100 µM in the experiment with SK-MEL-5 melanoma. Further, the TGI in the experiment with SR leukemia was greater than 100 µM; in the experiment on UACC-257 melanoma, 50 µM and > 100 µM. The GI50 is greater than 100 µM in the experiment with IGROV1 ovarian; greater than 100 µM with NCI-H23 lung; > 100 µM and 20.7 µM in the experiment on OVCAR-4 ovarian; > 100 µM and 89.2 µM with RXF 393 renal; greater than 100 µM in the experiment with SK-MEL-5 melanoma; 21.9 µM and > 100 µM in the experiment with UACC-257 melanoma.
`O=C1O/C(=C\c2ccccc2)N(c2ccccc2)C1=O`: the TGI in the experiment on IGROV1 ovarian, with NCI-H23 lung, with OVCAR-4 ovarian, in the experiment on OVCAR-8 ovarian, in the experiment with RXF 393 renal and in the experiment on SK-MEL-5 melanoma was greater than 100 µM each time. For the same compound, the TGI in the experiment on SR leukemia and in the experiment on UACC-257 melanoma was greater than 100 µM each time.
